This is an account of results in patent US20150252049A1, “MGLU2/3 ANTAGONISTS FOR THE TREATMENT OF AUTISTIC DISORDERS” (Hoffmann-La Roche Inc., priority 2012, published 2015).

The assay deals with BTBR T+tf/J (BTBR) mice. Nature of the assay: 3-Chambered Social Test (animal vs. object). The assay is classed as in vivo, mouse. To be noted: male BTBR-T+/tfj mice, 3-10-30 mg/kg p.o. 3 hours before habituation; effect especially in the first 5 minutes at 10 mg/kg (FIG. 2/3). The procedure: Deficits in social interactions and social approach, unusual patterns of ultrasonic vocalization, and high levels of repetitive self-grooming are included.^20
The 3-Chambered Social Test is used to assess autistic-like behaviors. Shortly after a period of habituation a mouse's sociability is determined by evaluating the amount of time the test mouse spends approaching a wire cage (holding cup) containing an unfamiliar mouse.
48 male mice BTBR-T+/tfj, 8-9 weeks old, were used in the experiments described herein in 4 groups n=12/group. Further, 6 male stimulus mice (unfamiliar BTBR T+tf/J mice) of similar age and weight were used.
Low light of 20 Lux was used. With the doorways into the two side chambers closed, the test mouse was placed in the middle chamber and allowed to explore the apparatus for 10 min. Thereafter, the doorways were opened and the test mouse was allowed to explore the entire test box for 10 min. The cages were empty. The sociability test was conducted immediately following the habituation phase.
While the test mouse was enclosed in the center compartment of the test box a stimulus mouse was enclosed in a wire cage (holding cup) in one side chamber. […] The amount of time spent and the number of entries into each chamber was measured, as was the time spent in a small perimeter around the cup holding the stimulus mouse. […]

Turning to `CCC(=O)NS(=O)(=O)c1cccc(-c2cccc(-c3cc(-c4ccc(C(F)(F)F)cc4)cc(C)n3)n2)c1` [IIb], the “social preference (duration in the chamber, duration sniffing)” value was “increased social preference”.
